Values joined by “and” are separate entries in the source; they are usually repeats but may differ in a detail not shown here. Equal values may be shown once.
Experiments:
[1] = target: T1, recombinant full-length human BTK kinase (Homo sapiens, UniProt Q06187); assay: BTK kinase assay: ADP generation assay (ADP-Glo); type: biochemical; settings: 60 nM BTK, MBP substrate, 60 min
T1 construct: recombinant full-length human BTK kinase with a (His)6 tag; (His)6; purchased Invitrogen Corporation, Carlsbad, Calif
T1 sequence (Q06187 whole entry): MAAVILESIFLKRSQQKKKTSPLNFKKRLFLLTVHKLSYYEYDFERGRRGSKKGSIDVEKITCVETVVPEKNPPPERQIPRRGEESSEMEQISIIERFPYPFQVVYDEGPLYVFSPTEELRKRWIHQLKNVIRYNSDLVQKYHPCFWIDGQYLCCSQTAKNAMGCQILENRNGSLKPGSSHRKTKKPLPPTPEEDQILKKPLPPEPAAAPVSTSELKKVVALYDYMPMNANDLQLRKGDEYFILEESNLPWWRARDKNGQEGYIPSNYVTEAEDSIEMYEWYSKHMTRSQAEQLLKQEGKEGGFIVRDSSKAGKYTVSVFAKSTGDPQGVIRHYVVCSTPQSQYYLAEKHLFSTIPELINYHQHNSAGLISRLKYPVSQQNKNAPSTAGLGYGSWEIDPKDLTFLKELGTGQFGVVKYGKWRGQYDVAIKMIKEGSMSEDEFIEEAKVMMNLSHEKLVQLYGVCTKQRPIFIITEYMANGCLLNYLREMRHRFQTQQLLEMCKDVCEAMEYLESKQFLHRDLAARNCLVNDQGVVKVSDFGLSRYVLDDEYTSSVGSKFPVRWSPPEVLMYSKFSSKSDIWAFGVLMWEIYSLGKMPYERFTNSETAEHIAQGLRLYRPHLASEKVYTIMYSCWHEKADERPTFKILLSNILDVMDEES
Method: The primary assay for compound inhibitory activity was the ADP generation assay described herein. Test compounds were diluted to desired concentrations in kinase reaction buffer and briefly incubated with recombinant full-length human BTK kinase with a (His)6 tag (81.3 kDa; Invitrogen Corporation, Carlsbad, Calif.). The assay as described is based on volumes used in a standard 384 well format using solid, white-wall plates. The reaction was subsequently initiated by the addition of ATP and myelin basic protein (MBP) substrate (Millipore Corporation, Waltham, Mass.). Composition of the assay reaction mixture ([…]) was: 5% v/v DMSO, 60 nM BTK, 1.6 µM ATP, and 20 µM MBP substrate. After incubation at room temperature for 60 min, […] (Promega Corporation, Madison, Wis.) was added to each well and incubated for an additional 40 minutes. The reagent stopped the kinase reaction and depleted the unconsumed ATP. Kinase Detection reagent ([…]; Promega Corporation) was then added to each well. The Kinase Detection reagent comprises reagents to convert ADP to ATP and provide luciferase and luciferin to detect ATP. Luminescence was measured on an EnVision microplate reader (PerkinElmer). The amount of luminescence from each reaction is directly correlated with BTK kinase activity. Percent inhibition and IC50 values were calculated by comparing enzyme activity in drug-treated wells to the appropriate controls.
IC50 values are determined using GraphPad Prism 5 software. The data were entered as an X-Y plot into the software as percent inhibition for each concentration of the drug. The concentration values of the drug were log transformed and the nonlinear regression was carried out using the “sigmoidal dose-response (variable slope)” option within the GraphPad software to model the data and calculate IC50 values. The IC50 values reported are the concentration of drug at which 50% inhibition was reached.
Activity (IC50) was determined in the BTK assays describe herein below, i.e. either the ADP generation assay and/or the time-resolved FRET assay, and the data are shown in Table III. The compound number corresponds to the compound numbers used in Table I. In the table below, “ADP Assay” refers to the assay which measures production of ADP resulting from use of ATP by the kinase; and “HTRF Assay” refers to the time resolved-FRET kinase assay described in the examples. Multiple values in a given column indicate the results of more than one assay for the given compound. Representative data of the type used to determine the IC50 values for the ADP assay in Table III are shown in FIG. 8 for compounds 3, 4, and 5.

[2] = Plasma stability assay; type: in vitro ADME; set-up: half-life: dose or concentration left out as unconfirmed
Method: The representative compound, compound 3, was also assessed in a plasma stability assay. Briefly, the compound was present at a concentration […] in plasma from three mammalian species (human, rat, and mouse). The concentration of intact drug (i.e. unmodified drug) at the indicated time points was determined using a LC-MS/MS assay. The data are consistent with good drug stability under the conditions tested.

[3] = target: T2, TEC (Homo sapiens, UniProt P42680); assay: Specific kinase IC50 assay; type: biochemical; settings: 1 μM ATP, 10-dose, duplicate
T2 sequence (P42680 1-631): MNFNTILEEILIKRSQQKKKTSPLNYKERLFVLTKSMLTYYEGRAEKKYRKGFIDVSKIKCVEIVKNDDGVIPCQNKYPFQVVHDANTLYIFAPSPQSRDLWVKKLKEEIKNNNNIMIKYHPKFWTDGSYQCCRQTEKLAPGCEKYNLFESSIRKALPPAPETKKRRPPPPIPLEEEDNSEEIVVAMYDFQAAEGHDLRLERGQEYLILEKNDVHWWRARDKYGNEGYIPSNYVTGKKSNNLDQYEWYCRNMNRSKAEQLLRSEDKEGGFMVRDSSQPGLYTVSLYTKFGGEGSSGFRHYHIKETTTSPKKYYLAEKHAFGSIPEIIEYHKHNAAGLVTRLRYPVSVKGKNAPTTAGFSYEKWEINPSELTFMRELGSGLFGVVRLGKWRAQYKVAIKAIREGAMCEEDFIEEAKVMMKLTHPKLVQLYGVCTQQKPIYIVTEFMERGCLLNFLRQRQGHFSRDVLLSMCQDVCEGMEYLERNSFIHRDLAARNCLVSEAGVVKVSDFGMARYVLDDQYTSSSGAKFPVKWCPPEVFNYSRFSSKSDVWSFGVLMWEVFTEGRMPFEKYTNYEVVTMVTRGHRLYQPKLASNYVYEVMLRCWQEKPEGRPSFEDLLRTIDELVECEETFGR
Method: (§1) The assays were carried out in the presence of 1 μM ATP and were conducted in a 10-dose format in duplicate with three-fold serial dilutions starting at 10 μM.

[4] = target: T3, BMX/ETK (Homo sapiens, UniProt P51813); assay: Specific kinase IC50 assay; type: biochemical; settings: 1 μM ATP, 10-dose, duplicate
T3 sequence (P51813 1-675): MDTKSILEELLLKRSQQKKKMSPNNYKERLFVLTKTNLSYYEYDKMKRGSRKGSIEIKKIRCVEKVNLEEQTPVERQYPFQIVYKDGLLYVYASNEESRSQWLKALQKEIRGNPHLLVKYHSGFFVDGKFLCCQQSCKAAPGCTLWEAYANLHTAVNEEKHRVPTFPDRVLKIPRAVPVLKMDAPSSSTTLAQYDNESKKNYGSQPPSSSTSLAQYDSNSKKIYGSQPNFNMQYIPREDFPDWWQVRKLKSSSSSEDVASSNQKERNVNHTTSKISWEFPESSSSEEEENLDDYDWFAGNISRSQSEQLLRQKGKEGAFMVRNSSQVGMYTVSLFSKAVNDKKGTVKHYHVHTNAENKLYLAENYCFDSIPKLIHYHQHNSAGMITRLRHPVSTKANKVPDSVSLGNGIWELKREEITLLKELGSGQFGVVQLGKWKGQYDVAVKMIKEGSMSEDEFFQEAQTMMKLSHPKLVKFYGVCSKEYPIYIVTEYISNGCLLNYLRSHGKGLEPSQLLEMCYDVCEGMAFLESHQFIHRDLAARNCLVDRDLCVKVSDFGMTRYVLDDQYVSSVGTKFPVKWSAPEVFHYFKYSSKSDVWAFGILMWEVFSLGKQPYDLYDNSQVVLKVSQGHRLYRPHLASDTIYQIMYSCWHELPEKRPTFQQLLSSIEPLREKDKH
Method: as §1

SMILES: C=CC(=O)Nc1cccc(-c2nc(Nc3cccc(N4CCOCC4)c3)nc3[nH]ncc23)c1 [Compound 3, N-(3-(6-((3-morpholinophenyl)amino)-1H-pyrazolo[3,4-d]pyrimidin-4-yl)phenyl)acrylamide]
- IC50 [1]: 5 nM and 6 nM and 8 nM
- half-life ([2]; human plasma): > 120 min
- Compound Remaining ([2]; human plasma, 0 min): 100 % of initial amount
- Compound Remaining ([2]; human plasma, 15 min): 90.1 % of initial amount
- Compound Remaining ([2]; human plasma, 30 min): 99.6 % of initial amount
- Compound Remaining ([2]; human plasma, 60 min): 91.3 % of initial amount
- Compound Remaining ([2]; human plasma, 120 min): 78.6 % of initial amount
- half-life ([2]; mouse plasma): > 120 min
- Compound Remaining ([2]; mouse plasma, 0 min): 100 % of initial amount
- Compound Remaining ([2]; mouse plasma, 15 min): 100 % of initial amount
- Compound Remaining ([2]; mouse plasma, 30 min): 101 % of initial amount
- Compound Remaining ([2]; mouse plasma, 60 min): 85.8 % of initial amount
- Compound Remaining ([2]; mouse plasma, 120 min): 91.7 % of initial amount
- half-life ([2]; rat plasma): > 120 min
- Compound Remaining ([2]; rat plasma, 0 min): 100 % of initial amount
- Compound Remaining ([2]; rat plasma, 15 min): 95.2 % of initial amount
- Compound Remaining ([2]; rat plasma, 30 min): 92.9 % of initial amount
- Compound Remaining ([2]; rat plasma, 60 min): 80.2 % of initial amount
- Compound Remaining ([2]; rat plasma, 120 min): 55.9 % of initial amount
- IC50 [3]: 50.2 nM
- IC50 [4]: 9.26 nM

— patent publication US20150252048A1, “SUBSTITUTED N-(3-PYRIMIDIN-4-YL)PHENYL)ACRYLAMIDE ANALOGS AS TYROSINE RECEPTOR KINASE BTK INHIBITORS” (UNIVERSITY OF UTAH RESEARCH FOUNDATION, priority 2012, published 2015)
